Test results reported in patent US20130224285A1, “ESTROGEN RECEPTOR ALPHA POLYPEPTIDE SEQUENCE, DIAGNOSTIC AND THERAPEUTIC APPLICATIONS THEREOF” (Universite Libre de Buxelles, priority 2010, published 2013).
Residues, ends and D or L forms follow the SMILES beside them. No end group written: not given here. *: point of attachment. Cbz = O=C(OCc1ccccc1)*

Tests used:
MCF-7 cells = experiment: Immunoprecipitation (G20 antibody) and Western blot of the endogenous ER-alpha degradation peptide in conditioned medium of treated MCF-7 cells; format: cell-based, human; conditions: conditioned medium of MCF-7 cells; estradiol 10^-8M, diethylstibestrol 10^-8M, 4-OHTamoxifen 10^-7M, Fulvestrant 10^-7M; vs control; FIG. 3; preliminary
Procedure: MCF-7 breast cancer cell line was cultured for 48 hours in EMEM without Phenol-red, comprising 2 mM glutamine, 100 U/ml penicilline and 100 μg/ml streptomycine, supplemented with 10% steroid-free fetal calf serum. After three washing steps with serum/antibiotic-free EMEM without Phenol-red, the cells were cultured for 4 hours in the presence or absence of the E2 ligand dissolved in serum/antibiotic-free EMEM without Phenol-red, containing only 2 mM glutamine.
After preclearing with 100 μl (50%) immobilised protein G on agarose beads (UltraLink®, Pierce) (2 hours at 4° C.) conditioned media (or EMEM for the negative control) were incubated with antibody G20 (Santa-Cruz) (except for the negative control) overnight at 4° C. After antibody capturing in 100 μl (50%) immobolised proteine G, the resin is heated to 85° C. for 5 minutes in Laemmli without colorant. The protein samples are subsequently separated on a Tris-Tricine 10% (Invitrogen) gel and the peptides are transferred to nitro-cellulose membranes (15% methanol; semi-dry transfer (BioRad apparatus; 24 V; 0.15 mA, 15 minutes). After blocking with 5% milk for 30 minutes, the proteins are detected with chemiluminescence (primary antibody: G20 (1/500; 2 hours); secondary antibody: anti-rabbit (Pierce; 1/6000; 1 hour). […]

proteasome = conditions: inhibition of the proteasome; Nawaz et al. 1999 and others; cited from earlier work
ER-alpha = experiment: ERE-driven luciferase reporter assay in MVLN cells; format: cell-based, human; conditions: 10^-5M, 6 hours, serum free, FIG. 6, preliminary
Description: In order to provide a proof of principle that secretion of the ER-alpha breakdown product/peptide described here could relay or amplify the effect of estradiol toward ER-alpha transcriptional activity, we have treated MVLN cells (MCF-7 stably transfected with an ERE-driven luciferase reporter gene; Pons et al., Biotechniques 1990; 9:450-459) with a synthetic peptide corresponding to this sequence (SEQ ID NO:2) and containing its post-translational modifications in serum free condition (FIG. 6).
MVLN cells were cultured for 48 hours in EMEM containing 10% of charcoal-stripped serum prior treatment with E2 at 10^−10 M or ER-alpha-17p or SEQ ID NO:2 both at 10^−5M for. After 6 h treatment in serum free condition, cells were washed 2 times with PBS. Luciferase activity was then measured in cell lysates by luminometry using Luciferase Assay System (Promega) according to manufacturer instructions.

[1] = test system: MCF-7 breast cancer cell line; experiment: MCF-7 cell growth with synthetic peptides, crystal violet staining; format: cell-based, human; conditions: 10^-5M, 72 hours, EMEM with 10% charcoal-stripped serum, vs control, FIG. 4
Procedure: In order to provide a proof of principle that secretion of the ER-alpha breakdown product/peptide described here could relay or amplify the effect of estradiol toward the proliferation of ER-alpha-positive cells, we have treated MCF-7 cells with a synthetic peptide corresponding to this sequence (SEQ ID NO:2) and containing its post-translational modifications (FIG. 4). ER-alpha-positive MCF-7 breast cancer cell line were seeded in 96-well plates (3000 cells/well). Cells were then treated with or without (control) ER-alpha-17p or the SEQ ID NO:2 peptide both at 10^−5M for 72 hours. Cell growth was measured by crystal violet staining. Briefly, cell cultures were gently washed once with PBS, fixed with 1% glutaraldehyde in PBS (15 min, room temperature) and stained with 0.1% crystal violet (w/v in ddH2O; 30 min, room temperature). After removal of excess dye by rinsing under gently running tap water, cell-bound crystal violet was extracted with 1% Triton X-100 (v/v in ddH2O; room temperature, under agitation) and measured by spectrometry at 550 nm.

[2] = target: T1, purified recombinant human ER-alpha (Homo sapiens, UniProt P03372); conditions: Gallo et al. 2007; cited from earlier work
T1 sequence (P03372 1-595): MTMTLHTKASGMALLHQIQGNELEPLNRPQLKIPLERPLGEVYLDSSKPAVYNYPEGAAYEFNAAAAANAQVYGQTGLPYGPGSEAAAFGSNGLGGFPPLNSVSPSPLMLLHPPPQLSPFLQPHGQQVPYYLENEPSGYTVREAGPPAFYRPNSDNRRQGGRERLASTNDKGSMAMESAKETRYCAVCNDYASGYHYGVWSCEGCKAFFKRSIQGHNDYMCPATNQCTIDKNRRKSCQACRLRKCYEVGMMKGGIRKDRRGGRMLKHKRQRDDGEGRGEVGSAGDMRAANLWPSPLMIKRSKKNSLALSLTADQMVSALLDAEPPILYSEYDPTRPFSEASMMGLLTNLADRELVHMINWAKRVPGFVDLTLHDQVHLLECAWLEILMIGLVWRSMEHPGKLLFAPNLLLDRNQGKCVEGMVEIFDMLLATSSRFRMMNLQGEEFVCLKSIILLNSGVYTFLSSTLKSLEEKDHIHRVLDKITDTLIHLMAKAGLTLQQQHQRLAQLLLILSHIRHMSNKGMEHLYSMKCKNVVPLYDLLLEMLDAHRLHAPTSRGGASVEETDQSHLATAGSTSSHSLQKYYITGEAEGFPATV

ER-alpha receptor = conditions: competition with synthetic peptide; Gallo et al. 2007; cited from earlier work
[3] = test system: breast cancer cell lines that are ER-alpha-positive; conditions: Gallo et al. 2007, 2008; cited from earlier work

CC/C(=C(\c1ccc(O)cc1)c1ccc(OCCN(C)C)cc1)c1ccccc1 [4-OHTamoxifen]
production of the endogenous ER-alpha degradation product/peptide (MCF-7 cells): decrease its production

C[C@]12CC[C@@H]3c4ccc(O)cc4C[C@@H](CCCCCCCCC[S+]([O-])CCCC(F)(F)C(F)(F)F)[C@H]3[C@@H]1CC[C@@H]2O (some centres unmarked) [Fulvestrant]
production of the endogenous ER-alpha degradation product/peptide (MCF-7 cells): decrease its production

CC(C)C[C@@H](C=O)NC(=O)[C@H](CC(C)C)NC(=O)[C@H](CC(C)C)NC(=O)OCc1ccccc1 [MG-132] (Cbz-Leu-Leu-Leu-aldehyde)
ER-alpha-dependent transcription (proteasome): diminishes ER-alpha-dependent transcription

CC(=O)N[C@@H](CSC(=O)[C@]1([C@@H](O)C(C)C)NC(=O)[C@H](C)[C@@H]1O)C(=O)O [lactacystine]
ER-alpha-dependent transcription (proteasome): diminishes ER-alpha-dependent transcription

K268RQRDDGEGRGEVGSAGDMRAANLWPSPLMIKRSKKNSLALSLT311 (KRQRDDGEGRGEVGSAGDMRAANLWPSPLMIKRSKKNSLALSLT; listed as Homo Sapiens) [SEQ ID NO:2, endogenous 44-residue ER-alpha degradation peptide K268-T311]
ER-alpha transcriptional activity (luciferase) (ER-alpha): significant increase of the ER-alpha transcriptional activity higher than the control ER-alpha-17p peptide | MCF-7 cell proliferation (growth) ([1]; listed as ER-alpha-44p): capable of inducing proliferation of cancer cells | MCF-7 cell proliferation (growth) ([1]; listed as SED ID NO:2): significant increase of their proliferation higher that the control ER-alpha-17p peptide

P295LMIKRSKK303NSLALSLT311 (PLMIKRSKK(Me)NSLALSLT; listed as Homo Sapiens) [ER-alpha-17p]
binding to purified recombinant human ER-alpha [2]: binds to purified recombinant human ER-alpha | MCF-7 cell proliferation (growth) [1]: capable of inducing proliferation of cancer cells | transcriptional activity of the ER-alpha receptor (ER-alpha receptor): increased transcriptional activity | proliferation of ER-alpha-positive breast cancer cell lines [3]: increased proliferation
